Assay results published in PubChem BioAssay AID256 (DTP/NCI, 2004).
Several values for one entry are separate records, joined by “and”; a condition that tells them apart may be missing. Equal entries are not always repeated. Inconclusive results and toxic doses are left out.

Test system: CD2F1 mice, L1210 leukemia ip, survival T/C
Test: NCI In Vivo Anticancer Drug Screen. Data for tumor model L1210 Leukemia (intraperitoneal) in CD2F1 (CDF1) mice
Settings: higher = longer survival
How it was run: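 Activity against a transplanted murine tumor was judged by comparing the compound group with a vehicle group. The outcome in the treated animals was divided by that in the controls.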

[1] = endpoint: mean survival time, dose: 100.0 mg/kg/injection, schedule: Q01DX009 (ip), vehicle: saline with Tween-80
[2] = endpoint: mean survival time, dose: 75.0 mg/kg/injection, schedule: Q01DX001 (ip), vehicle: other
[3] = endpoint: mean survival time, dose: 150.0 mg/kg/injection, schedule: Q01DX001 (ip), vehicle: other

Q: For `CCOC(=O)c1c(C)[nH]oc1=O`, which T/C [1] is on record?
A: Its T/C is 96 % of control.

Q: What does the source list for `O=c1[nH]c2ccc(Cl)cc2c2ccccc12`?
A: T/C (endpoint: mean survival time, dose: 100.0 mg/kg/injection, schedule: Q01DX001 (ip), vehicle: carboxymethylcellulose (CMC)): 91 % of control; T/C (endpoint: mean survival time, dose: 200.0 mg/kg/injection, schedule: Q01DX001 (ip), vehicle: carboxymethylcellulose (CMC)): 97 % of control; T/C (endpoint: mean survival time, dose: 400.0 mg/kg/injection, schedule: Q01DX001 (ip), vehicle: carboxymethylcellulose (CMC)): 105 % of control

Q: How did the T/C (endpoint: mean survival time, dose: 12.5 mg/kg/injection, schedule: Q01DX005 (ip), vehicle: water) turn out when `O=c1[nH]c(=O)n(CCCO)cc1F` was run?
A: The T/C was 111 % of control.

Q: And the T/C (endpoint: mean survival time, dose: 25.0 mg/kg/injection, schedule: Q01DX005 (ip), vehicle: water)?
A: Its T/C is 115 % of control and 103 % of control.

Q: What about the T/C (endpoint: mean survival time, dose: 50.0 mg/kg/injection, schedule: Q01DX005 (ip), vehicle: water) of the same molecule?
A: The T/C was 122 % of control and 123 % of control.

Q: And the T/C (endpoint: mean survival time, dose: 200.0 mg/kg/injection, schedule: Q01DX005 (ip), vehicle: water)?
A: Its T/C is 96 % of control.

Q: With `O=C(/C=C\c1ccc(/C=C/C(=O)Nc2cccc(C3=NCCCN3)c2)cc1)Nc1cccc(C2=NCCCN2)c1` as the molecule, how does the T/C (endpoint: median survival time, dose: 5.0 mg/kg/injection, schedule: Q01DX009 (ip), vehicle: Klucel (hydroxypropylcellulose) (HPC)) read?
A: Its T/C is 175 % of control and 196 % of control.

Q: And the T/C (endpoint: median survival time, dose: 10.0 mg/kg/injection, schedule: Q01DX009 (ip), vehicle: Klucel (hydroxypropylcellulose) (HPC))?
A: The T/C was 185 % of control and 250 % of control.

Q: And the T/C (endpoint: median survival time, dose: 20.0 mg/kg/injection, schedule: Q01DX009 (ip), vehicle: Klucel (hydroxypropylcellulose) (HPC))?
A: The T/C was 113 % of control.

Q: Which T/C (endpoint: mean survival time, dose: 100.0 mg/kg/injection, schedule: Q01DX001 (ip), vehicle: saline sonified) does the source give for `Nc1nc(Nc2ccc(C(=O)O)cc2)n[nH]1` here?
A: The T/C was 96 % of control.

Q: What about the T/C (endpoint: mean survival time, dose: 100.0 mg/kg/injection, schedule: Q01DX009 (ip), vehicle: saline sonified) of the same molecule?
A: The T/C was 105 % of control.

Q: What about the T/C (endpoint: mean survival time, dose: 200.0 mg/kg/injection, schedule: Q01DX001 (ip), vehicle: saline sonified) of the same molecule?
A: Its T/C is 104 % of control.

Q: What about the T/C (endpoint: mean survival time, dose: 200.0 mg/kg/injection, schedule: Q01DX009 (ip), vehicle: saline sonified) of the same molecule?
A: Its T/C is 96 % of control.

Q: What about the T/C (endpoint: mean survival time, dose: 400.0 mg/kg/injection, schedule: Q01DX001 (ip), vehicle: saline sonified) of the same molecule?
A: Its T/C is 96 % of control.

Q: What about the T/C (endpoint: mean survival time, dose: 400.0 mg/kg/injection, schedule: Q01DX009 (ip), vehicle: saline sonified) of the same molecule?
A: Its T/C is 88 % of control.

Q: `O=C1CSC(=S)N1/N=C/c1ccccc1Cl` was tested. Which T/C [2] did it give?
A: Its T/C is 96 % of control.

Q: What about the T/C [3] of the same molecule?
A: Its T/C is 96 % of control.

Q: What about the T/C (endpoint: mean survival time, dose: 300.0 mg/kg/injection, schedule: Q01DX001 (ip), vehicle: other) of the same molecule?
A: Its T/C is 94 % of control.

Q: Which results are given for `CC(O)C(C)(C)CO` (centres undefined)?
A: T/C (endpoint: mean survival time, dose: 100.0 mg/kg/injection, schedule: Q04DX003 (ip), vehicle: saline): 88 % of control; T/C (endpoint: mean survival time, dose: 200.0 mg/kg/injection, schedule: Q04DX003 (ip), vehicle: saline): 88 % of control; T/C (endpoint: mean survival time, dose: 400.0 mg/kg/injection, schedule: Q04DX003 (ip), vehicle: saline): 93 % of control

Q: `C(=NCc1ccccc1)c1ccc2c(c1)OCO2` was tested. Which T/C (endpoint: mean survival time, dose: 100.0 mg/kg/injection, schedule: Q04DX002 (ip), vehicle: saline with Tween-80) did it give?
A: Its T/C is 100 % of control.

Q: What about the T/C (endpoint: mean survival time, dose: 200.0 mg/kg/injection, schedule: Q04DX002 (ip), vehicle: saline with Tween-80) of the same molecule?
A: Its T/C is 100 % of control.

Q: What about the T/C (endpoint: mean survival time, dose: 400.0 mg/kg/injection, schedule: Q04DX002 (ip), vehicle: saline with Tween-80) of the same molecule?
A: The T/C was 100 % of control.

Q: For `CCOP(=O)(Cc1cccc2ccccc12)OCC`, which T/C (endpoint: mean survival time, dose: 100.0 mg/kg/injection, schedule: Q01DX001 (ip), vehicle: Klucel (hydroxypropylcellulose) (HPC)) is on record?
A: The T/C was 103 % of control.

Q: What about the T/C (endpoint: mean survival time, dose: 200.0 mg/kg/injection, schedule: Q01DX001 (ip), vehicle: Klucel (hydroxypropylcellulose) (HPC)) of the same molecule?
A: Its T/C is 96 % of control.

Q: And the T/C (endpoint: mean survival time, dose: 400.0 mg/kg/injection, schedule: Q01DX001 (ip), vehicle: Klucel (hydroxypropylcellulose) (HPC))?
A: The T/C was 100 % of control.

Q: What does the source list for `C=CCNC(=O)C(O)C(O)C(=O)NCC=C` (centres undefined)?
A: T/C (endpoint: mean survival time, dose: 100.0 mg/kg/injection, schedule: Q01DX009 (ip), vehicle: acetone): 101 % of control; T/C (endpoint: mean survival time, dose: 100.0 mg/kg/injection, schedule: Q04DX003 (ip), vehicle: acetone): 98 % of control; T/C (endpoint: mean survival time, dose: 200.0 mg/kg/injection, schedule: Q01DX009 (ip), vehicle: acetone): 96 % of control; T/C (endpoint: mean survival time, dose: 200.0 mg/kg/injection, schedule: Q04DX003 (ip), vehicle: acetone): 100 % of control; T/C (endpoint: mean survival time, dose: 400.0 mg/kg/injection, schedule: Q01DX009 (ip), vehicle: acetone): 98 % of control; T/C (endpoint: mean survival time, dose: 400.0 mg/kg/injection, schedule: Q04DX003 (ip), vehicle: acetone): 112 % of control

Q: How did the T/C [1] turn out when `NS(=O)(=O)c1cc([N+](=O)[O-])ccc1Cl` was run?
A: Its T/C is 91 % of control.

Q: What about the T/C (endpoint: mean survival time, dose: 200.0 mg/kg/injection, schedule: Q01DX009 (ip), vehicle: saline with Tween-80) of the same molecule?
A: Its T/C is 98 % of control.

Q: With `CC(C)CCCC(C)C1CCC2C3CC(C(=O)O)C(C)(CCC(=O)O)C3CCC12C` (centres undefined) as the molecule, how does the T/C [2] read?
A: The T/C was 108 % of control.

Q: And the T/C [3]?
A: The T/C was 104 % of control.
